Assay results taken from patent publication US4389394A, “Methods for reducing dental caries” (Talres Development (N.A.) N.V., priority 1978, dated 1983).
Entries after “also recorded” stand apart in the source; their conditions may differ.

Legend:
[1] = test system: S. mutans; experiment: (B) Adherence to teeth: deposition of suspended cells on to glass (Magiscan image analyser); assay type: cell-based, Streptococcus mutans; conditions: for degree of adhesion: Mann Whitney U-test, statement in words; for Coverage (%) after 0.5 h / Coverage (%) after 4.0 h: mean of 40 determinations
Source text: (§1) The extent to which cells of S. mutans adhere to teeth was investigated using a recognized model system. Solutions of the same substances as in (A) were made up, and the degree of deposition of suspended cells on to glass was studied using a "Magiscan" image analyser (Talyer et al., 1978 Praktischen Metallographie, Sonderbande 8: 433-442).
Each reading is the mean of 40 determinations.

[2] = test system: Streptococcus mutans NCTC 10832; experiment: (A) Effect on reduction of pH by Streptococcus mutans; assay type: cell-based; conditions: for pH: 0.05 molar each saccharide, 37° C; for Mean pH: Duncan Procedure sub-sets, amino acids where named in the solution; for effect on acid production: statement in words
Source text: Mouth flora such as S. mutans cause dental caries by producing acid which erodes the tooth enamel. The cells exude a polysaccharide which firmly adheres them to the tooth surfaces as plaque, thus enhancing the local erosion by the acid. The effect of chlorodeoxysucroses on acid production by S. mutans in sucrose solutions was studied in comparison with the effect produced by xylitol, an agent proposed as a caries preventative.
(§2) Plain aqueous solutions were used and also solutions containing amino acids (protein hydrolysate) 1% w/v to approximate the buffering effect of natural saliva. Control experiments were effected using no saccharide in order to illustrate the endogenous metabolism of the organism. Each experiment was quadruplicated and was run at 37° C. The pH was measured at 0, 0.5, 1, 1.5,2, 3 and 4 hours.

[3] = test system: S. mutans; experiment: Scanning electron microscopy of glass with adherent cells; assay type: cell-based, Streptococcus mutans; conditions: sucrose medium; qualitative
[4] = test system: S. mutans; experiment: (C) Further tests on pH reduction; assay type: cell-based, Streptococcus mutans; conditions: for Mean pH: 0.055 molar chlorodeoxy derivative, pooled data for 2, 3 and 4 hours, Duncan procedure; for effect on acid production / pH: statement in words, pooled 2, 3 and 4 hours
Protocol: as §2
Twelve sets of tests were carried out in the same way as described above at (A) but using solutions which were 0.055 molar in the respective chlorodeoxy derivative.
Solutions of the following were employed:
(i) Saline, negative control for endogenous metabolism
(ii) Sucrose, positive control
(iii) 6,1',6'-trichloro-6,1',6'-trideoxysucrose, compound no. 7.
(iv) Compound no. 7 plus sucrose.
(v) 1',6'-dichloro-1',6'-dideoxysucrose, compound no. 4
(vi) Compound no. 4 plus sucrose
(vii) 4,1',6'-trichloro-4,1',6'-trideoxygalactosucrose, Compound no. 5.
(viii) Compound no. 5 plus sucrose
(ix) 4,6,6'-trichloro-4,6,6'-trideoxygalactosucrose, Compound no. 6
(x) Compound no. 6 plus sucrose
(xi) 1'-chloro-1'-deoxysucrose, compound no. 1
(xii) Compound no. 1 plus sucrose
The acid production was monitored as before.

[5] = Acute oral toxicity in the rat; conditions: in vivo, per os, maximum dose practically possible
Source text: For example, in the rat the compound no.

[6] = test system: germ-free Liverpool hooded rats inoculated orally with Streptococcus mutans NCT 10823; experiment: (E) Gnotobiotic rat caries model; assay type: in vivo; conditions: 21 days; diet 33% skim milk, 67% carbohydrate; S. mutans NCT 10823; statement in words
Protocol: Studies were carried out on the effect of chlorodeoxysucroses on cariogenic food products, using 4,1',6'-trichloro-4,1',6'-trideoxygalactosucrose as the chlorodeoxysucrose. Cariogenicity was examined using the gnotobiotic rat caries model (see for example Drucker and Green, Arch. Oral Biol. Vol 23 pp 183-187).
The experiment involved the use of germ-free Liverpool hooded rats inoculated orally with Streptococcus mutans NCT 10823 (a caries-producing organism). The rats were fed a diet consisting essentially of 33% by weight skim milk and 67% by weight carbohydrate. The carbohydrate consisted of (i) starch, or (ii) sucrose, or (iii) starch together with sufficient of the chlorodeoxysucrose to give a sweetness as perceived by a human of the same order as that of the sucrose. After 21 days, the rats were sacrificed and the lower jaw lesions were counted to give a caries score for each rat (see Konig, Marthaler and Muhlemann, Dt. Zahn-Mund-u. Kieferheilk Vol. 29, 99-127).

[7] = West German Offenlegungsschrift No. 2700036; cited from earlier work
[8] = test system: S. mutans; experiment: (D) Further tests on adherence to teeth; assay type: cell-based, Streptococcus mutans; conditions: glass slide; 0.055 molar; Duncan procedure
Protocol: as §1
While recording the pH during the tests of (C), the adherence was monitored in the same way as in (B). The percentage coverage of a glass slide was determined at 0.5 and 4 hours for each solution, and the results treated by the Duncan procedure.

[9] = test system: dental plaque; experiment: (F) Human volunteers: acid production by dental plaque after mouthrinse (glucose pre-rinse); assay type: in vivo; conditions: statement in words
Protocol: The compound 4,1',6'-trichloro-4,1',6'-trideoxygalactosucrose was selected as a suitable candidate for further testing. A mouthrinse in accordance with the invention was prepared using the selected compound as active ingredient. The level of the active ingredient was initially chosen to be such that the mouthrinse tasted the same as a 15% w/v solution of sucrose.
Six subjects were used, who were first acquainted with the available toxicological data and who subsequently agreed to take part in the tests. The subjects were instructed not to clean their teeth on their day of testing. At sampling time, 0 min, each subject took 5% w/v glucose mouthrinse for 2 minutes, then waited a further 8 minutes before the buccal and lingual plaque of one side of the jaw (upper and lower) was removed and placed on aluminium foil and sealed. […]
Samples (0.2 ml) were tested after admixture with 0.1 ml 5% w/v glucose and 0.2 ml sterile saliva. The pH was monitored in quadruplicated tests.
Pooling of data at different times was not justifiable, and the Duncan procedure could not be followed. Data was therefore analysed by computer using an `Analysis of Variance` program and a `Description of Populations` program.

Question: Which degree of adhesion [1] does the source give for `OC[C@@H](O)[C@H](O)[C@@H](O)CO` [Xylitol, xylitol] here?
Answer: appeared to cause an increase rather than a decrease

Question: And the “Coverage (%) after 0.5 h” value ([1]; no amino acid)?
Answer: 42.31%

Question: And the “Coverage (%) after 4.0 h” value ([1]; no amino acid)?
Answer: 74.21%

Question: And the pH ([2]; 0 h, no amino acids)?
Answer: 5.94

Question: And the pH ([2]; 0.5 h, no amino acids)?
Answer: 5.50

Question: What about the pH ([2]; 1.0 h, no amino acids) of the same compound?
Answer: 5.42

Question: What about the pH ([2]; 1.5 h, no amino acids) of the same compound?
Answer: 5.39

Question: What about the pH ([2]; 2.0 h, no amino acids) of the same compound?
Answer: 5.32

Question: What about the pH ([2]; 3.0 h, no amino acids) of the same compound?
Answer: 5.38

Question: What about the pH ([2]; 4.0 h, no amino acids) of the same compound?
Answer: 5.37

Question: And the “Mean pH” value [2]?
Answer: 5.36

Question: And the “effect on acid production” value [2]?
Answer: never had a statistically significally effect; also recorded: non-cariogenic but not anti-cariogenic; also recorded: gave about the same mean pH as when carbohydrate was excluded

Question: What about the “extracellular coating and size of clumps of adherent cells” value [3] of the same compound?
Answer: No such effect was observed

Question: For `OC[C@H]1O[C@H](O[C@]2(CCl)O[C@H](CCl)[C@@H](O)[C@@H]2O)[C@H](O)[C@@H](O)[C@H]1Cl` [Compound no. 5, 4-chloro-4-deoxy-α-D-galactopyranosyl-1,6-dichloro-1,6-dideoxy-β-D-fructofuranoside], which degree of adhesion ([1]; listed as TGS) is on record?
Answer: reduces the degree of adhesion significantly; also recorded: the reduction is greater than that of xylitol

Question: And the “Coverage (%) after 0.5 h” value ([1]; no amino acid)?
Answer: 30.42%

Question: What about the “Coverage (%) after 4.0 h” value ([1]; no amino acid) of the same compound?
Answer: 64.81%

Question: What about the “Mean pH” value [4] of the same compound?
Answer: 6.82

Question: What about the “effect on acid production / pH” value [4] of the same compound?
Answer: give a better result than the negative control, saline

Question: And the “effect on acid production / pH” value ([4]; listed as (vii))?
Answer: one pH unit less than that of solution (ii)

Question: What about the “effect on acid production / pH” value ([4]; listed as no. 5) of the same compound?
Answer: especially effective

Question: What about the LD50 [5] of the same compound?
Answer: > 16000 mg/kg

Question: And the “cariogenicity (caries score)” value [6]?
Answer: appeared to be decreasing the cariogenicity of the starch

Question: What about the “sweetness relative to sucrose” value [7] of the same compound?
Answer: many times sweeter than sucrose

Question: What about the pH ([2]; 0 h, no amino acids) of the same compound?
Answer: 5.88

Question: And the pH ([2]; 0.5 h, no amino acids)?
Answer: 5.67

Question: And the pH ([2]; 1.0 h, no amino acids)?
Answer: 5.69

Question: And the pH ([2]; 1.5 h, no amino acids)?
Answer: 5.69

Question: What about the pH ([2]; 2.0 h, no amino acids) of the same compound?
Answer: 5.61

Question: And the pH ([2]; 3.0 h, no amino acids)?
Answer: 5.67

Question: What about the pH ([2]; 4.0 h, no amino acids) of the same compound?
Answer: 5.63

Question: And the “Mean pH” value [2]?
Answer: 5.64

Question: What about the “effect on acid production” value ([2]; listed as TGS) of the same compound?
Answer: always had a favourable effect which was statistically significant; also recorded: reduced the amount of acid produced; also recorded: on its own had a favourable effect against the endogenous metabolism of the micro-organism

Question: What about the “extracellular coating and size of clumps of adherent cells” value [3] of the same compound?
Answer: found to reduce the extracellular coating and the size of the clumps

Question: What about the “% coverage after 0.5 hours” value [8] of the same compound?
Answer: 41.4%

Question: What about the “% coverage after 4 hours” value [8] of the same compound?
Answer: 58.4%

Question: Which results are given for `OC[C@H]1O[C@@](CO)(O[C@H]2O[C@H](CO)[C@@H](O)[C@H](O)[C@H]2O)[C@@H](O)[C@@H]1O` [Sucrose, sucrose]?
Answer: Coverage (%) after 0.5 h ([1]; no amino acid): 37.28%; Coverage (%) after 4.0 h ([1]; no amino acid): 65.83%; Coverage (%) after 0.5 h ([1]; with amino acid): 31.89%; Coverage (%) after 4.0 h ([1]; with amino acid): 75.95%; Mean pH [4]: 4.33; pH ([2]; 0 h, no amino acids): 5.69; pH ([2]; 0 h, with amino acids 1% w/v): 5.98; pH ([2]; 0.5 h, no amino acids): 4.57; pH ([2]; 0.5 h, with amino acids 1% w/v): 5.55; pH ([2]; 1.0 h, no amino acids): 4.57; pH ([2]; 1.0 h, with amino acids 1% w/v): 5.36; pH ([2]; 1.5 h, no amino acids): 4.58; pH ([2]; 1.5 h, with amino acids 1% w/v): 5.10; pH ([2]; 2.0 h, no amino acids): 4.54; pH ([2]; 2.0 h, with amino acids 1% w/v): 5.00; pH ([2]; 3.0 h, no amino acids): 4.63; pH ([2]; 3.0 h, with amino acids 1% w/v): 4.92; pH ([2]; 4.0 h, no amino acids): 4.55; pH ([2]; 4.0 h, with amino acids 1% w/v): 4.79; Mean pH [2]: 4.57; extracellular coating and size of clumps of adherent cells [3]: characteristically clumped and were coated with extracellular polysaccharide; % coverage after 0.5 hours [8]: 51.2%; % coverage after 4 hours [8]: 69.2%

Question: For `O[C@@H]1[C@@H](O)[C@@H](O[C@]2(CCl)O[C@H](CCl)[C@@H](O)[C@@H]2O)O[C@H](CCl)[C@H]1O`, which “antiacidogenic effect on plaque” value [9] is on record?
Answer: Statistically conclusive proof that the mouthrinse was evincing an anti-acidogenic effect was not available

Question: What about the “yield of plaque as perceived by subjects” value [9] of the same compound?
Answer: increased the yield of plaque
